Results published in patent publication US20110098177A1, “METHODS AND COMPOSITIONS OF PLANT MICRONUTRIENTS” (NOVUS INTERNATIONAL INC., priority 2006, published 2011).
Entries after “also recorded” stand apart in the source; their conditions may differ.

Assays:
Type in all cases: in vivo
Aristotle bell pepper = conditions: in vivo
In short: (§1)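 Florida-47 tomato and Aristotle bell pepper transplants in 2-gal pots with low-nutrient medium (pH 5.36), drip-irrigated; products at three rates in deionized water plus non-ionic surfactant sprayed on newly matured leaves at 3 and 7 WAT. Toxicity scored at 4 WAT (0=no damage, 10=death); foliar tissue analysed at 6 WAT; marketable fruit harvested 4 times (tomato).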

Florida-47 tomato = conditions: in vivo
In short: as §1

Tygress tomato plants [1] = test: Foliar nutrient concentration at 6 WAT, open-field tomato (Examples 7-10); conditions: in vivo
In short: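 Open-field Florida trial, spring 2008: transplants at 4-true-leaf stage on drip-irrigated raised beds were foliar-sprayed at 3 and 5 WAT (BIOX-CM at 4 and 5 WAT) at 60 gal/acre with non-ionic surfactant. Most recent mature leaves were sampled at 6 WAT. Tomato fruit was USDA-graded and analysed for minerals.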

[2] = system: Patriot bell pepper plants; test: Foliar nutrient concentration at 6 WAT, open-field bell pepper (Examples 7-10); conditions: in vivo
Description: (§2) The following experiments were performed in open-field plots during the spring of 2008 at GCREC, Balm, University of Florida. Four products delivering Zn (BIOX-Z), Mn (BIOX-M), Cu (BIOX-Cu), and Fe (BIOX-Fe) were compared to other micronutrient supplement formulations in tomato and bell pepper plants.
(§3) The plot sizes for the tomato plants were 30-ft plots (15 plants per plot) and 15-ft plots were used for the bell pepper plants (30 plants per plot). Crop set-up, procedures and variables were as follows.
(§4) Transplants of ‘Tygress’ tomato plants and ‘Patriot’ bell pepper plants in the 4-true leaf stage (about 6 inches tall) were planted in raised beds in open-field plots. The cross-section of each raised bed was 28 inches wide at the top, 32 inches wide at the base, and 8 inches tall. Irrigation and non-micronutrient fertilizer were provided daily through two drip lines per bed (0.45 gal/100 ft bed/min) at recommended rates for tomato and bell pepper production in Florida. […] The height of the plants for each of the treatment groups was measured at 3 weeks after transplantation (WAT), just prior to treatment with the experimental foliar fertilizers.
(§5) All foliar fertilizers except BIOX-CM were applied to the various treatment groups at 3 weeks after transplantation (WAT) and again at 5 WAT. The BIOX-CM treatment was applied at 4 and 5 WAT. The working water volume was 60 gal/acre and a non-ionic surfactant (Ad-Spray 80) was added in the amount of 2 pints/100 gal water. All plots were sprayed with sprayers pressurized at 25 psi and the canopies of both crops were covered with the micronutrient solutions. Treated plots were isolated during foliar fertilizer application to avoid the cross-contamination of other treatments on adjoining plots.
(§6) Leaf samples were collected from the most recent mature leaves from each plant at 6 WAT (2 weeks after initial treatment). Foliar tissue analysis was performed by a commercial laboratory to determine the concentration of N, P, K, Mg, Ca, B, Zn, Mn, Fe, and Cu. Tomato marketable fruit weights were collected at 10 and 12 WAT, and the fruits were graded according to USDA standards. Pepper marketable fruit weights were determined beginning at 5 WAT over 5 weekly harvests. Fruit mineral analysis (N, P, K, Mg, Ca, B, Zn, Mn, Fe, and Cu) was performed on samples from the tomato harvest.
(§7) The experimental design was a randomized complete block design with 5 replications for each treatment. All comparison data were analyzed using a general linear model and the means of each treatment were separated with a Fisher's protected LSD test at the 5% significance level.

Tygress tomato plants [3] = test: Marketable yield, open-field tomato (Examples 7-10); conditions: in vivo
Description: as §2, §3, §4, §5, §6, §7

[4] = system: Patriot bell pepper plants; test: Marketable yield, open-field bell pepper (Examples 7-10); conditions: in vivo
Description: as §2, §3, §4, §5, §6, §7

Tygress tomato plants [5] = test: Nutrient concentration of tomato fruits at 10 WAT, open field (Examples 7-10); conditions: in vivo
Description: as §2, §3, §4, §5, §6, §7

Tygress tomato plants [6] = test: Foliar nutrient concentration at 7 WAT, greenhouse tomato spring 2009 (Examples 13-15); conditions: 7 WAT (1 week after treatment)
Description: (§8) The following experiments were performed in a green house during the spring of 2009 at GCREC, Balm, University of Florida. Crop set-up, procedures and variables were as follows.
(§9) Transplants of ‘Tygress’ tomato plants were planted in 2-gallon pots filled with commercial planting medium with nutrient concentration of Fe, Zn, Mn, Cu being negligible and insufficient for crop growth. Irrigation and non-micronutrient fertilizer were provided daily through microsprinklers at recommended rates for tomato production in Florida. No pesticides were used. Treatments were as described in Tables 42, 43, and 44 below. BIOX-Cu was compared to Cu-sulfate, BIOX-EDC, and BIOX-O; and BIOX-Fe was compared to Fe-sulfate and BIOX-EDF. BIOX-MEZ is Ca-HMTBA.
(§10) Treatments were applied at 6 WAT (weeks after transplanting) using a water volume of 200 mL/plant. Deionized water was used for foliar applications. A non-ionic surfactant was added. Other nutrients were applied as appropriate under non-limiting conditions.
Foliar tissue nutrient analysis was performed at 3 WAT (i.e., 3 weeks before treatment) and 7 WAT (i.e., 1 weeks after treatment) on the non-applied newest leaves. The concentrations of N, P, K, Mg, Ca, B, Zn, Mn, Fe, and Cu in the foliar tissue were determined by a commercial laboratory. There were no significant differences between the foliar nutrient concentrations of any of the treatment groups prior to treatment.
(§11) Experimental design was a randomized complete block design with 6 replications. Data were analyzed using a general linear model, and means were separated using an LSD test at the 5% significance level.

Tygress tomato plants [7] = test: Yields of tomato fruits, greenhouse spring 2009 (Examples 13-15); conditions: BIOX-Cu at 0.46 and 0.55 lb/acre; Cu-sulfate at 0.8 lb/acre; BIOX-EDC at 0.4 lb/acre
Description: as §8, §9, §10
Marketable fruit were collected three times during the growing season, starting at 10 WAT (4 weeks after the initial treatment). Tomato fruit was graded as marketable and non-marketable. Marketable fruit was sized as extra-large, large, and medium. Non-marketable fruit were harvested and number and weight recorded but not sized.
as §11

Tygress tomato plants [8] = conditions: BIOX-Cu at 0.46 and 0.55 lb/acre; Cu-sulfate at 0.8 lb/acre; BIOX-EDC at 0.4 lb/acre
Description: as §8, §9, §10
Toxicity of the treatments was assessed by rating foliar tissue using a visual scale, where 0=no injury and 10=plant death.
as §11

## O=S(=O)([O-])[O-].[Cu+2] [BIOX-INC, copper sulfate]
Aristotle bell pepper
  Pepper toxicity: 0
Florida-47 tomato
  Tomato toxicity: 0
Tygress tomato plants [1]
  Foliar B concentration of tomato plants: 40 ppm
  Foliar Ca concentration of tomato plants: 2.0%
  Foliar Cu concentration of tomato plants: 503 a ppm
  Foliar Fe concentration of tomato plants: 71 ppm
  Foliar K concentration of tomato plants: 5.3%
  Foliar Mg concentration of tomato plants: 0.60%
  Foliar Mn concentration of tomato plants: 208 ppm
  Foliar N concentration of tomato plants: 4.7%
  Foliar P concentration of tomato plants: 0.17%
  Foliar Zn concentration of tomato plants: 281 ppm
  Foliar concentration of Cu of tomato plants compared to control, statement: significant increase in the foliar concentration of Cu
[2]
  Foliar B concentration of bell pepper plants: 39 ppm
  Foliar Ca concentration of bell pepper plants: 2.0%
  Foliar Cu concentration of bell pepper plants: 503 a ppm
  Foliar Fe concentration of bell pepper plants: 71 ppm
  Foliar K concentration of bell pepper plants: 5.3%
  Foliar Mg concentration of bell pepper plants: 0.60%
  Foliar Mn concentration of bell pepper plants: 208 ppm
  Foliar N concentration of bell pepper plants: 4.7%
  Foliar P concentration of bell pepper plants: 0.17%
  Foliar Zn concentration of bell pepper plants: 281 ppm
  Foliar concentration of Cu of bell pepper plants compared to control, statement: significant increase in the foliar concentration of Cu
Tygress tomato plants [3]
  Marketable yield, Tomato: 17.4 a ton/acre
  Tomato marketable yield compared to control, statement: significantly increased tomato marketable yields relative to control; also recorded: significantly higher marketable yield of tomato fruits compared to control
[4]
  Marketable yield, Bell Pepper: 7.3 ton/acre
Tygress tomato plants [5]
  B concentration of tomato fruits: 21 ppm
  Ca concentration of tomato fruits: 0.2%
  Cu concentration of tomato fruits: 22 ppm
  Fe concentration of tomato fruits: 85 ppm
  K concentration of tomato fruits: 8.0%
  Mg concentration of tomato fruits: 0.38%
  Mn concentration of tomato fruits: 42 ppm
  N concentration of tomato fruits: 4.4%
  P concentration of tomato fruits: 0.68%
  Zn concentration of tomato fruits: 332 ppm
Tygress tomato plants [6]
  Copper concentrations in tomato leaves, statement: highest leaf copper concentrations
Tygress tomato plants [7]
  Marketable tomato yields compared to non-treated control, statement: did not alter marketable yields relative to the non-treated control
Tygress tomato plants [8]
  Toxicity compared to non-treated control plants, statement: increased levels of toxicity
